Entries after “also recorded” stand apart in the source; their conditions may differ.
Tests used:
[1] = Compatibility study of minocycline hydrochloride with excipients (visual inspection); format: physicochemical; settings: for Effect of added antioxidant on MCH degradation: MCH suspensions comprising water or non-compatible excipients; for Effect of added anti-oxidant on oxidation of Minocycline HCl: waterless medium of propylene glycol and PEG 200; for Compatibility with MCH: surfactants: MCH:excipient 1:50, surfactant solubilized in mineral oil; for Compatibility with MCH: surfactants / Compatibility with MCH: oily emollients and waxes: 25° C. and 40° C.; for Compatibility with Minocycline HCl: summary, tested after the storage for up to 3 weeks; for Compatibility with MCH: hydrophilic solvents: MCH: excipient 1:250, suspension at 25° C. and 40° C. for maximum of sixty days; for Compatibility with Minocycline HCl (discussion of compatibility studies): excipient named as label, storage up to 3 weeks; for Compatibility with MCH: oily emollients and waxes: MCH:excipient 1:250 for oily emollients and 1:50 for waxes, max sixty days
Description: (§1) Active agent is incubated with various excipients individually at one or more temperatures and at different ratios of active agent to a single excipient for a certain fixed period or to the point where degradation was suspected. […] Visual inspection is a criterion for indication of compatibility. Any change of color indicates oxidation or degradation. […] Tests are also carried out with combinations of excipients.

[2] = Doxycycline Hyclate compatibility test; format: physicochemical; settings: for Effect of added anti-oxidant on oxidation of Doxycycline Hyclate: waterless medium of propylene glycol and PEG 200; for Visual inspection after the storage at 25° C. / Visual inspection after the storage at 40° C. / Visual inspection after the storage at 50° C.: stored two weeks
Description: as §1
(§2) A similar compatibility study was conducted for Doxycycline Hyclate and Doxycycline Monohydrate.
(§3) Different compositions of hydrophilic and hydrophobic solvents containing Doxycycline Hyclate (Set I and Set II) and Doxycycline Monohydrate (Set III) were prepared by weighing the antibiotic in a glass vial and shaking overnight with each solvent investigated.
Group II included Doxycycline Hyclate mixed with various vehicles with addition of antioxidants like alpha tocopherol, butylated hydroxytoluene (BHT), and ascorbic acid.

[3] = Doxycycline Monohydrate compatibility test; format: physicochemical; settings: for Effect of added anti-oxidant on oxidation of Doxycycline Monohydrate: waterless medium of propylene glycol and PEG 200; for Visual inspection after the storage at 25° C. / Visual inspection after the storage at 40° C. / Visual inspection after the storage at 50° C. / Visual inspection at T-0: mixture of 1.04% w/w Doxycycline Monohydrate with the ingredient; for Visual inspection after the storage at 25° C. / Visual inspection after the storage at 40° C. / Visual inspection after the storage at 50° C.: stored two weeks; for Visual inspection at T-0: two weeks study
Description: Active agent is incubated with various excipients individually at one or more temperatures and at different ratios of active agent to a single excipient for a certain fixed period or to the point where degradation was suspected. The period can be for example 3 or 7 or 14 or 21 or 28 days or longer. Visual inspection is a criterion for indication of compatibility. Any change of color indicates oxidation or degradation. […] Tests are also carried out with combinations of excipients.
as §2, §3
A similar compatibility test was performed on another form of Doxycycline—Doxycycline Monohydrate.

[4] = system: EGFR inhibitor-induced rash; settings: cited from earlier work
mouse = settings: cited from earlier work
[5] = cited from earlier work
[6] = system: patients treated with EGFR inhibitors; settings: patients treated with the EGFR inhibitor (Erlotinib 150 mg QD); cited from earlier work
[7] = MCH:excipient 1:50, 25° C. and 40° C., visual inspection
[8] = summary, tested after the storage for up to 3 weeks
[9] = mixture of 1.04% w/w Doxycycline Hyclate with the ingredient
[10] = mixtures of 1.04% w/w, excipient named as label, storage at 25° C., 40° C. and 50° C. for two weeks, listed as Ethanol 95%
[11] = mixtures of 1.04% w/w, excipient named as label, storage at 25° C., 40° C. and 50° C. for two weeks, listed as ethanol 95%
[12] = mixtures of 1.04% w/w, excipient named as label, storage at 25° C., 40° C. and 50° C. for two weeks

## Cc1c(C)c2c(c(C)c1O)CC[C@@](C)(CCC[C@H](C)CCC[C@H](C)CCCC(C)C)O2 [alpha-tocopherol]
[1]
  Effect of added antioxidant on MCH degradation: did not prevent MCH degradation
  Effect of added anti-oxidant on oxidation of Minocycline HCl: did not prevent the oxidation
[2]
  Effect of added anti-oxidant on oxidation of Doxycycline Hyclate: did not prevent the oxidation
[3]
  Effect of added anti-oxidant on oxidation of Doxycycline Monohydrate: did not prevent the oxidation

## CCOC(=O)c1ccc(C#Cc2ccc3c(c2)C(C)(C)CCS3)nc1 [tazarotene, Ethyl 6-[2-(4,4-dimethylthiochroman-6-yl)ethynyl] nicotinate]
[4]; cream twice a day
  Clinical benefit on EGFR inhibitor-induced rash: no observed clinical benefit
  Patients in whom the rash was assessed as more severe: 10%

## CC1CCC(C(C)C)C(O)C1 (stereo not drawn) [Menthol]
[1]; [7]
  Compatibility with MCH: additives: compatible

## CCCCCCCCCCCCCCCCCC(=O)OCC(O)CO (stereo not drawn) [Glyceryl monostearate]
[1]; visual inspection
  Compatibility with MCH: surfactants: incompatible

## CC(C)CCCCCCCCCCCCCCC(=O)O [Isostearic acid]
[1]; [7]
  Compatibility with MCH: foam adjuvants: not compatible
[1]
  Compatibility with Minocycline HCl: No
[2]; [8]
  Compatibility with Doxycycline Hyclate: Yes

## Sorbitan sesquistearate
[1]; visual inspection
  Compatibility with MCH: surfactants: incompatible

## OCC(O)CO [Glycerin]
[1]; visual inspection
  Compatibility with MCH: hydrophilic solvents: incompatible
[1]
  Compatibility with Minocycline HCl (discussion of compatibility studies): intensive oxidation
  Compatibility with Minocycline HCl: No
[2]; [8]
  Compatibility with Doxycycline Hyclate: No
[3]; [8]
  Compatibility with Doxycycline Monohydrate: No

## SPAN 60
[1]; visual inspection
  Compatibility with MCH: surfactants: incompatible

## Sorbitan Monostearate
[1]
  Compatibility with Minocycline HCl: Yes
[2]; [8]
  Compatibility with Doxycycline Hyclate: Yes

## CCCOC(=O)c1cc(O)c(O)c(O)c1 [propyl gallate]
[1]
  Effect of added antioxidant on MCH degradation: did not prevent MCH degradation

## CC[C@@H]1/C=C(\C)C[C@H](C)C[C@H](OC)[C@H]2O[C@@](O)(C(=O)C(=O)N3CCCC[C@H]3C(=O)O[C@H](/C(C)=C/[C@@H]3CC[C@H](Cl)[C@H](OC)C3)[C@H](C)[C@@H](O)CC1=O)[C@H](C)C[C@@H]2OC [pimecrolimus]
[4]; half face study, cetuximab, after 2 weeks
  Lesion counts on treated side of the face: significantly less

## Cyclomethicone
[1]; visual inspection
  Compatibility with MCH: oily emollients and waxes: compatible

## CCCCCCCCCCCCCCO [Myristyl alcohol]
[1]; [7]
  Compatibility with MCH: foam adjuvants: compatible
[1]
  Compatibility with Minocycline HCl: Yes
[2]; [8]
  Compatibility with Doxycycline Hyclate: Yes

## CO[C@H]1CO[C@H]2[C@@H]1OC[C@H]2OC [Dimethyl Isosorbide]
[1]; visual inspection
  Compatibility with MCH: hydrophilic solvents: incompatible
[1]
  Compatibility with Minocycline HCl: No
[2]; [9]
  Visual inspection after the storage at 25° C.: Yellow solution
  Visual inspection after the storage at 40° C.: Brownish orange
  Visual inspection after the storage at 50° C.: Orange solution
[2]; mixture of 1.04% w/w Doxycycline Hyclate with the ingredient, two weeks study
  Visual inspection at T-0: yellow solution
[2]; [8]
  Compatibility with Doxycycline Hyclate: No
[3]
  Visual inspection after the storage at 25° C.: orange solution
  Visual inspection after the storage at 40° C.: orange solution
  Visual inspection after the storage at 50° C.: Orange solution
  Visual inspection at T-0: yellow solution
[3]; [8]
  Compatibility with Doxycycline Monohydrate: No

## C[C@H]1c2cccc(O)c2C(=O)C2=C(O)[C@]3(O)C(=O)C(C(N)=O)=C(O)[C@@H](N(C)C)[C@@H]3[C@@H](O)[C@@H]21 [Doxycycline, doxycycline]
mouse
  Oral acute toxicity LD50: 1007 mg/kg

## CCOCCOCCO [Diethylene glycol monoethyl ether]
[1]; visual inspection
  Compatibility with MCH: hydrophilic solvents: incompatible

## CCCCCCCC/C=C\CCCCCCCC(=O)O [Oleic acid]
[1]; [7]
  Compatibility with MCH: foam adjuvants: compatible

## Doxycycline hyclate
[5]
  Lipid solubility: high degree
  Solubility in water: soluble

## CCCCCCCCCCCCCCCCCCCCCCO [Behenyl alcohol]
[1]; [7]
  Compatibility with MCH: foam adjuvants: compatible

## CCCCCCCCCCCCCCCCCCO [Stearyl alcohol]
[1]; [7]
  Compatibility with MCH: foam adjuvants: compatible
[1]
  Compatibility with Minocycline HCl: Yes
[2]; [8]
  Compatibility with Doxycycline Hyclate: Yes

## CCCCCCCC/C=C\CCCCCCCCO [Oleyl alcohol]
[1]; [7]
  Compatibility with MCH: foam adjuvants: compatible
[1]
  Compatibility with Minocycline HCl: Yes
[2]; [8]
  Compatibility with Doxycycline Hyclate: Yes

## CCCCCCCCCCCCCCCC(=O)O [Palmitic acid]
[1]; [7]
  Compatibility with MCH: foam adjuvants: compatible

## C#Cc1cccc(Nc2ncnc3cc(OCCOC)c(OCCOC)cc23)c1 [Erlotinib]
[6]
  Patients who developed a grade 3 rash: 9%
  Patients who developed a rash in all grades: 75%

## CC(O)CO (stereo not drawn) [Propylene glycol]
[1]; visual inspection
  Compatibility with MCH: hydrophilic solvents: incompatible
[1]
  Compatibility with Minocycline HCl: No
[2]; [8]
  Compatibility with Doxycycline Hyclate: No
[3]; [8]
  Compatibility with Doxycycline Monohydrate: No

## SPAN 40
[1]; visual inspection
  Compatibility with MCH: surfactants: incompatible

## O=C1O[C@H]([C@@H](O)CO)C(O)=C1O [ascorbic acid]
[1]
  Effect of added anti-oxidant on oxidation of Minocycline HCl: did not prevent the oxidation
[2]
  Effect of added anti-oxidant on oxidation of Doxycycline Hyclate: did not prevent the oxidation
[3]
  Effect of added anti-oxidant on oxidation of Doxycycline Monohydrate: did not prevent the oxidation

## SPAN 80
[1]; visual inspection
  Compatibility with MCH: surfactants: incompatible

## CCCCCCCCCCCCCCCCO [Cetyl alcohol]
[1]; [7]
  Compatibility with MCH: foam adjuvants: compatible

## C[S+](C)[O-] [Dimethyl Sulfoxide]
[1]; visual inspection
  Compatibility with MCH: hydrophilic solvents: incompatible

## CC(C)OC(=O)CCCCC(=O)OC(C)C [Disopropyl adipate]
[1]; visual inspection
  Compatibility with MCH: oily emollients and waxes: compatible

## CC(C)OC(=O)CCCCC(=O)OC(C)C [Diisopropyl adipate]
[1]
  Compatibility with Minocycline HCl: Yes
[2]; [8]
  Compatibility with Doxycycline Hyclate: Yes
[3]; [8]
  Compatibility with Doxycycline Monohydrate: No

## O [water]
[1]; minimal quantities of water (100 μL) added
  Effect of addition of water on MCH suspended in compatible excipients: prompt degradation of MCH

## CC(C)CCCCCCCCCCCCCCCO [Isostearyl alcohol]
[1]; [7]
  Compatibility with MCH: foam adjuvants: compatible

## OCCCCO [Butylene Glycol]
[1]; visual inspection
  Compatibility with MCH: hydrophilic solvents: incompatible
[1]
  Compatibility with Minocycline HCl: No
[2]; [9]
  Visual inspection after the storage at 50° C.: Light orange solution
[2]; [8]
  Compatibility with Doxycycline Hyclate: No
[3]
  Visual inspection after the storage at 25° C.: Orange solution
  Visual inspection after the storage at 50° C.: black solution
[3]; [8]
  Compatibility with Doxycycline Monohydrate: No

## Sorbitan Monolaurate
[1]
  Compatibility with Minocycline HCl: No
[2]; [9]
  Visual inspection after the storage at 25° C.: Brown solution
  Visual inspection after the storage at 40° C.: Brown solution
  Visual inspection after the storage at 50° C.: Black solution
[2]; [8]
  Compatibility with Doxycycline Hyclate: No
[3]
  Visual inspection after the storage at 25° C.: orange solution
  Visual inspection after the storage at 40° C.: Brown solution
  Visual inspection after the storage at 50° C.: brown solution
  Visual inspection at T-0: Brown mixture
[3]; [8]
  Compatibility with Doxycycline Monohydrate: No

## C[Si]1(C)O[Si](C)(C)O[Si](C)(C)O[Si](C)(C)O[Si](C)(C)O1 [Cyclomethicone 5 NF]
[1]
  Compatibility with Minocycline HCl: Yes
[2]; [8]
  Compatibility with Doxycycline Hyclate: Yes
[3]; [8]
  Compatibility with Doxycycline Monohydrate: Yes

## CCO [Ethanol]
[1]; visual inspection
  Compatibility with MCH: hydrophilic solvents: incompatible
[1]
  Compatibility with Minocycline HCl (discussion of compatibility studies): changed their colour from yellow to orange
  Compatibility with Minocycline HCl: No
[2]; [10]
  Compatibility with Doxycycline Hyclate: stability
[2]; [11]
  Compatibility with Doxycycline Hyclate: stable
[2]; [8]
  Compatibility with Doxycycline Hyclate: Yes
[3]
  Visual inspection after the storage at 25° C.: Brown solution
  Visual inspection after the storage at 40° C.: Brown solution
  Visual inspection after the storage at 50° C.: Black solution
[3]; [10]
  Compatibility with Doxycycline Monohydrate: changed their colour from yellow to orange
[3]; [11]
  Compatibility with Doxycycline Monohydrate: oxidized
[3]; [8]
  Compatibility with Doxycycline Monohydrate: No

## CCCCCCCCCCCCCCCCCC(=O)O [Stearic acid]
[1]; [7]
  Compatibility with MCH: foam adjuvants: compatible

## CCCCCCCCCCCCCC(=O)OC(C)C [Isopropyl myristate]
[1]; visual inspection
  Compatibility with MCH: oily emollients and waxes: compatible

## CCCCCCCCCCC(CO)CCCCCCCC (stereo not drawn) [Octyl dodecanol]
[1]; visual inspection
  Compatibility with MCH: oily emollients and waxes: compatible
[1]
  Compatibility with Minocycline HCl (discussion of compatibility studies): full compatibility; also recorded: compatible
  Compatibility with Minocycline HCl: Yes
[2]; [12]
  Compatibility with Doxycycline Hyclate: incompatibility
[2]; [8]
  Compatibility with Doxycycline Hyclate: No
[3]; [12]
  Compatibility with Doxycycline Monohydrate: incompatibility
[3]; [8]
  Compatibility with Doxycycline Monohydrate: No

From patent US20210000842A1, “TETRACYCLINE MANAGEMENT OF EGFR INHIBITOR ASSOCIATED DERMATOSES” (Foamix Pharmaceuticals Ltd., priority 2015, published 2021)
